Source: ChEMBL document CHEMBL4130341 (Medchemcomm, 2016)
pIC50: −log10 of the molar value. The source made the active and inactive calls. No cut-off for these calls is given here.

Legend:
[1] = target: T1, Nuclear factor erythroid 2-related factor 2 (Mus musculus) (UniProt Q60795); test: Ratio of CD for activation of Nrf2 in mutant mouse BpRc1 cells cytosolic fraction to CD for activation of Nrf2 in wild type mouse Hepa1c1c7 cells cytosolic fraction; assay type: cell-based
T1 sequence (whole entry): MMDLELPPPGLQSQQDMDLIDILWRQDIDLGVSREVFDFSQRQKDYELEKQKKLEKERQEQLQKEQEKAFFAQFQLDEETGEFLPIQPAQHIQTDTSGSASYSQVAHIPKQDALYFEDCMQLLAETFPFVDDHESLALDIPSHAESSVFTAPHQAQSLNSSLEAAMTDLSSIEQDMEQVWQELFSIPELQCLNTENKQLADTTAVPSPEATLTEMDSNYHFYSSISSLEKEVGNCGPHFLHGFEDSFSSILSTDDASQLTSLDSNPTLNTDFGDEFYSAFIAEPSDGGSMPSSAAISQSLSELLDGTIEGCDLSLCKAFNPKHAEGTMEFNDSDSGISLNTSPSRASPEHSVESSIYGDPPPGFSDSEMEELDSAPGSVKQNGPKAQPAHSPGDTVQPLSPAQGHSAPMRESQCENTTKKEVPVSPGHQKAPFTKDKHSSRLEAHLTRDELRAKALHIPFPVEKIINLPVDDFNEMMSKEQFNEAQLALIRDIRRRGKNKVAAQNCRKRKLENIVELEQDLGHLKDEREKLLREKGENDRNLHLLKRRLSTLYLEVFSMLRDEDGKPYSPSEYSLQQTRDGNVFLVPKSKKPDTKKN

[2] = target: T1, Nuclear factor erythroid 2-related factor 2 (Mus musculus); test: Activation of Nrf2 in mutant mouse BpRc1 cells cytosolic fraction assessed as induction of quinone reductase activity using 2,6-DCIP as substrate in presence of NADH incubated for 48 hrs measured for 1 min; assay type: cell-based
[3] = target: T1, Nuclear factor erythroid 2-related factor 2 (Mus musculus); test: Activation of Nrf2 in wild type mouse Hepa1c1c7 cells cytosolic fraction assessed as induction of quinone reductase activity at 10 uM using 2,6-DCIP as substrate in presence of NADH incubated for 48 hrs measured for 1 min relative to control
[4] = Ratio of IC50 for cytotoxicity against wild type mouse Hepa1c1c7 cells to CD for activation of Nrf2 in wild type mouse Hepa1c1c7 cells cytosolic fraction
[5] = Ratio of IC50 for cytotoxicity against mutant mouse BpRc1 cells to CD for activation of Nrf2 in mutant mouse BpRc1 cells cytosolic fraction
[6] = target: T1, Nuclear factor erythroid 2-related factor 2 (Mus musculus); test: Activation of Nrf2 in wild type mouse Hepa1c1c7 cells cytosolic fraction assessed as induction of quinone reductase activity using 2,6-DCIP as substrate in presence of NADH incubated for 48 hrs measured for 1 min
[7] = Cytotoxicity against wild type mouse Hepa1c1c7 cells after 48 hrs by SRB assay; assay type: functional, cell-based; settings: Hepa-1c1c7, 48 h
[8] = Cytotoxicity against mutant mouse BpRc1 cells after 48 hrs by SRB assay; assay type: functional, cell-based; settings: BPrc1, 48 h
[9] = target: T1, Nuclear factor erythroid 2-related factor 2 (Mus musculus); test: Activation of Nrf2 in mutant mouse BpRc1 cells cytosolic fraction assessed as induction of quinone reductase activity at 10 uM using 2,6-DCIP as substrate in presence of NADH incubated for 48 hrs measured for 1 min relative to control; assay type: cell-based
[10] = target: T1, Nuclear factor erythroid 2-related factor 2 (Mus musculus); test: Ratio of activation of wild type Nrf2 in mouse Hepa1c1c7 cells cytosolic fraction to activation of Nrf2 in mutant mouse BpRc1 cells cytosolic fraction; assay type: cell-based
[11] = test system: MCF7; test: Cytotoxicity against human MCF7 cells assessed as cell survival at 100 uM after 24 hrs by SRB assay relative to control; assay type: functional; settings: for viability at 100 µM: MCF7, 24 h, read-out: Survival
[12] = test system: Salmonella typhimurium; test: Mutagenicity in Salmonella typhimurium TA98 in presence of mouse liver S9 fraction by Ames test; assay type: toxicity, organism-based; settings: salmonella enterica subsp. enterica serovar typhimurium
[13] = test system: TK-10; test: Cytotoxicity against human TK10 cells assessed as cell survival after 24 hrs by SRB assay; assay type: functional, cell-based; settings: TK-10, 24 h
[14] = test system: HK-2; test: Genotoxicity in human HK2 cells assessed as induction of DNA strand breakage at 20 uM after 6 hrs by DAPI staining based alkaline comet assay; assay type: toxicity, cell-based; settings: hk-2, 6 h
[15] = target: T1, Nuclear factor erythroid 2-related factor 2 (Mus musculus); test: Induction of Nrf2 nuclear translocation in mouse Hepa1c1c7 cells at 20 uM after 6 hrs by DAPI/Hoechst 33258 staining-based immunofluorescence method; assay type: cell-based
[16] = test system: Rattus norvegicus; test: In vivo induction of CYP450 activity in Wistar rat mammary gland microsomal fraction at 15 mg/kg, po qd administered over 2 weeks by measuring EROD activity using 7-ethoxyresorufine as substrate measured for 5 mins; assay type: ADME, organism-based; settings: microsomes
[17] = test system: Rattus norvegicus; test: Toxicity in Wistar rat assessed as effect on body weight at 15 mg/kg, po qd administered over 2 weeks; assay type: organism-based; settings: in vivo, 336 h
[18] = test system: HT-29; test: Cytotoxicity against human HT-29 cells assessed as cell survival at 100 uM after 24 hrs by SRB assay relative to control; assay type: functional; settings: HT-29, 24 h, read-out: Survival
[19] = test system: Rattus norvegicus; test: Toxicity in Wistar rat assessed as effect on behavior at 15 mg/kg, po qd administered over 2 weeks; assay type: organism-based; settings: in vivo, 336 h
[20] = test system: Rattus norvegicus; test: In vivo induction of CYP450 activity in Wistar rat liver microsomal fraction at 15 mg/kg, po qd administered over 2 weeks by measuring EROD activity using 7-ethoxyresorufine as substrate measured for 5 mins; assay type: ADME, organism-based; settings: microsomes
[21] = test system: Rattus norvegicus; test: In vivo induction of CYP450 activity in Wistar rat colon microsomal fraction at 15 mg/kg, po qd administered over 2 weeks by measuring EROD activity using 7-ethoxyresorufine as substrate measured for 5 mins; assay type: ADME, organism-based; settings: microsomes
[22] = test system: HT-29; test: Cytotoxicity against human HT-29 cells assessed as cell survival after 24 hrs by SRB assay; assay type: functional, cell-based; settings: HT-29, 24 h
[23] = test system: MCF7; test: Cytotoxicity against human MCF7 cells assessed as cell survival after 24 hrs by SRB assay; assay type: functional, cell-based; settings: MCF7, 24 h

Structure (SMILES) | fold change (FC) [3] | fold change (FC) [9] | Ratio [10] | Activity [11] | Activity [12] | Activity [14] | also measured
O=c1cc(-c2ccc(Br)cc2)oc2ccccc12 | 4.45 | 1.49 | 2.99 | – | – | – | Ratio [1]: 101; CD [2]: 80 µM; Ratio [4]: 107; Ratio [5]: 1.9; CD [6]: 0.79 µM; pIC50 [7]: 4.07; pIC50 [8]: 3.82
O=C(/C=C/c1cncc(Br)c1)c1ccccc1O | 1.51 | 1.03 | 1.5 | Active | Non-Toxic | – | pIC50 [13]: 4.70
O=C(/C=C/c1ccc2ccccc2c1)c1c(O)ccc2ccccc12 | 1.76 | 0.79 | 2.2 | Active | Non-Toxic | Non-Toxic | –
O=C(/C=C/c1cccc2ccccc12)c1ccccc1O | 3.21 | 2.21 | 1.5 | – | Non-Toxic | Non-Toxic | Ratio [1]: 0.91; Activity [15]: Active; CD [2]: 10 µM; Ratio [4]: 3; viability at 100 µM [11]: < 50%; Ratio [5]: 4.5; Activity [16]: Non-Toxic; Activity [17]: Non-Toxic; viability at 100 µM [18]: < 50%; Activity [19]: Non-Toxic; Activity [20]: Toxic; CD [6]: 11 µM; Activity [21]: Non-Toxic; pIC50 [7]: 4.48; pIC50 [13]: 4.85; pIC50 [8]: 4.35
CC(C)(C)c1cc(O)ccc1O [E319] | – | – | – | – | – | – | Ratio [1]: 6; Activity [15]: Active; CD [2]: 6 µM; Ratio [4]: 147; Ratio [5]: 10; CD [6]: 1 µM; pIC50 [7]: 3.83; pIC50 [8]: 4.22
O=C(/C=C/c1cccc(Br)n1)c1ccccc1O | 1.23 | 1.18 | 1 | – | Non-Toxic | Non-Toxic | viability at 100 µM [11]: < 50%; viability at 100 µM [18]: < 50%; pIC50 [13]: 4.74
O=C(/C=C/c1ccnc2ccccc12)c1cccc2ccccc12 | 1.43 | 1.83 | 0.8 | Active | Non-Toxic | – | –
O=C(/C=C/c1ccc2ccccc2c1)c1ccccc1 | 0.95 | 1.41 | 0.7 | Active | Non-Toxic | Non-Toxic | –
O=C(/C=C/c1cccc2ccccc12)c1ccccc1 | 0.88 | 0.92 | 1 | Active | Non-Toxic | Non-Toxic | –
O=C(/C=C/c1cncc(Br)c1)c1ccc2ccccc2c1O | 2.3 | 1.13 | 2 | Active | Non-Toxic | Non-Toxic | –
O=C(/C=C/c1ccccc1)c1ccc2ccccc2c1O | 3.04 | 0.57 | – | – | – | – | –
O=C(CC(O)c1ccccc1)c1c(O)ccc2ccccc12 (stereo unspecified) | 3.31 | 1.14 | 2.9 | Active | – | – | –
O=C(/C=C/c1ccc2ccccc2c1)c1ccccc1O | 2.96 | 1.39 | 2.1 | – | Non-Toxic | Non-Toxic | Ratio [1]: 40; CD [2]: 20 µM; Ratio [4]: 170; viability at 100 µM [11]: < 50%; Ratio [5]: 4.2; viability at 100 µM [18]: < 50%; CD [6]: 0.5 µM; pIC50 [7]: 4.07; pIC50 [8]: 4.07
O=C(/C=C/c1ccccn1)c1ccccc1O | – | – | – | – | – | Non-Toxic | –
O=C(/C=C/c1cccc2ccccc12)c1c(O)ccc2ccccc12 | 1.29 | 0.82 | 1.6 | – | Non-Toxic | Non-Toxic | viability at 100 µM [11]: < 50%; viability at 100 µM [18]: < 50%
O=C(/C=C/c1ccc(Br)cc1)c1ccccc1O | – | – | – | – | – | Non-Toxic | –
O=C(/C=C/c1ccccc1)c1cccc2ccccc12 | 0.98 | 1.13 | 0.9 | – | Non-Toxic | Non-Toxic | viability at 100 µM [11]: < 50%; viability at 100 µM [18]: < 50%; pIC50 [13]: 4.70
O=C(/C=C/c1ccnc2ccccc12)c1ccccc1O | 5.42 | 1.34 | 4 | – | Non-Toxic | – | –
O=C(/C=C/c1ccc2ccccc2c1)c1ccc2ccccc2c1O | 1.44 | 0.97 | 1.5 | Active | Non-Toxic | – | –
O=C(/C=C/c1ccnc2ccccc12)c1ccc2ccccc2c1O | 1.48 | 0.85 | – | Active | – | – | –
O=C(/C=C/c1ccccc1)c1ccc2ccccc2c1 | 0.96 | 1.21 | 0.8 | – | Non-Toxic | Non-Toxic | viability at 100 µM [11]: < 50%; pIC50 [22]: 4.49; viability at 100 µM [18]: < 50%; pIC50 [23]: 4.55
O=C(CC(O)c1ccccc1)c1ccc2ccccc2c1 (stereo unspecified) | 5.04 | 1.74 | 2.9 | Active | Non-Toxic | Non-Toxic | –
O=C(/C=C/c1ccnc2ccccc12)c1ccc2ccccc2c1 | 1.28 | 1.25 | 1 | Active | Non-Toxic | – | –
O=C(CC(CC(=O)c1ccccc1)c1cccc2ccccc12)c1ccccc1 | 0.83 | 2.38 | 0.4 | Active | Non-Toxic | – | –
